{
  "source": "patent US12251373B2",
  "about": "“Compounds and methods of treating retinal degeneration” (CASE WESTERN RESERVE UNIVERSITY, priority 2017, dated 2025)",
  "key": {"Abca4−/−Rdh8−/− mice": {"tested_on": "Abca4−/−Rdh8−/− mice", "assay": "Bright light-induced retinal degeneration", "format": "in vivo, mouse", "conditions": "50 or 200 mg kg−1 bw i.p. 30 min before 10,000 lux for 30 min; SD-OCT and HE seven days later", "experimental": "Abca4^−/−Rdh8^−/−42 mice with a 129Sv/Ev or C57BL/6 mixed background were used for light-induced retinal degeneration assays. […] Male and female C57BL/6 mice (Jackson Laboratory, Bar Harbor, ME) at six weeks of age were used to test the effects of YC-001 treatment on the retinoid cycle and bw as well as to determine parenterally administrated YC-001 enter the eyes. YC-001 was dissolved in DMSO at 80-160 mg mL^−1, and the solution was provided to mice by i.p. injection. All mice were housed and maintained in a 12 h light (≤10 lux)/12 h dark cycle in the Animal Resource Center at the School of Medicine, CWRU. […]\nRetinal degeneration was initiated by exposing Abca4^−/−Rdh8^−/− mice for 30 min to white light with an intensity of 10,000 lux (150-W spiral lamp, Hampton Bay, Home Depot, Atlanta, GA USA). […] Retinal structures were analyzed by SD-OCT seven days after bright light exposure. […]\nTo assess the effect of YC-001 treatment on Abca4^−/−Rdh8^−/− mice following bright light-induced retinal degeneration, we performed ultrahigh-resolution SD-OCT (Bioptigen, Morrisville, NC) for in vivo imaging of mouse retinas. […] To measure changes to photoreceptors in the retinas challenged with bright light and assess the effect of YC-001 on retinal protection, the thickness of the ONL was measured along the scanned SD-OCT image at 8 points from the nasal to temporal end of the retina. […]"}, "[1]": {"assay": "Pharmacokinetics of YC-001 in mouse plasma", "format": "in vivo", "experimental": "C57BL/6J mice ranging from 8 to 12 weeks of age were purchased from Jackson Labs. For administration, YC-001 was dissolved in DMSO at 160 mg mL^−1. To obtain the blood clearance curve for YC-001, each animal was treated by intraperitoneal injection of YC-001 at 200 mg kg^−1 bw. After administration, blood was collected at 5, 10, 15, 20, 30, 45, 60 and 90 min from the orbital sinus and dropped into K2EDTA blood collection tubes (FisherScientific). Mice were anesthetized with a ketamine/xylazine cocktail two min before blood collection. The blood samples were then incubated at 4° C. for 2 h before centrifugation at 1,800×g for 20 min to collect the supernatant that was the plasma. Plasma was mixed with twice the volume of methanol and then stored at −80° C. YC-001 was extracted from the samples (300 to 600 μL) with 0.6 mL chloroform. The chloroform fraction was collected, dried, and the extracted organic compounds were dissolved in 0.25 mL of methanol. One hundred-μL of each sample was injected onto an Eclipse XDB-C18 column (4.6×150 mm, 5 μm) and YC-001 was detected and quantified as described in the section Metabolic stability of YC-001."}, "human clarin-1 N48K": {"target": "T1, human clarin-1 N48K (Homo sapiens, UniProt P58418, N48K)", "T1 sequence (P58418 1-232 N48K)": "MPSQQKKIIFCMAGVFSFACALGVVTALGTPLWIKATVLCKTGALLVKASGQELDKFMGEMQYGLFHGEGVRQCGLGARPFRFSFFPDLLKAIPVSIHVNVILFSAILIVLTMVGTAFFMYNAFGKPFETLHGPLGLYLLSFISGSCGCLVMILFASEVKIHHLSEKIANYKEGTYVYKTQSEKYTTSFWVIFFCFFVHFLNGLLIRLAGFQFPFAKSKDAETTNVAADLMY", "assay": "Image-based analysis of clarin-1 N48K-Venus in HEK 293 cells", "format": "cell-based", "experimental": "HEK 293 stable cells co-expressing human clarin-1 N48K-Venus fluorescent protein and DsRed-Express-DR fusion protein were obtained from Dr. Yoshikazu Imanishi at Case Western Reserve University (CWRU). Cells were cultured in DMEM medium with 10% FBS following guidelines from ATCC. To test effects of YC-001 treatments on clarin-1 N48K-Venus amounts in these cells, an image-based assay was performed. Briefly, cells were seeded at 20,000 cells per well in 40 μL per well DMEM medium with 10% FBS in a 384-well PerkinElmer View plate coated with poly-D-lysine and cultured at 37° C. with 5% CO2 for 24 h. Cells then were treated with 10 μL per well DMEM medium with 10% FBS containing 5× the final concentration of tested compounds. […] Each compound was tested with 10 doses in a 2-fold dilution series, featuring 3 biological replicates. The 384-well plate was put back for incubation at 37° C. with 5% CO2. After 24 h of exposure to test compounds, the plate was removed, and the medium was aspirated and replaced by 20 μL per well of 4% paraformaldehyde for fixation at RT for 20 min. […] Images were analyzed by the Columbus storage and analysis system (Perkin Elmer). Hoechst33342 fluorescence images were used to define nuclei and count cells. […] YFP and DsRed fluorescence intensities per cell were measured in each well."}},
  "data": [
    {"smiles": "O=C1OCC(c2ccc(Cl)s2)=C1c1cccs1", "note": "[YC-001]", "values": [
      {"measurement": "protection of the ONL from light-induced damage", "setting": "Abca4−/−Rdh8−/− mice", "value": "dose-dependent protection of the ONL"},
      {"measurement": "elimination rate constant (Ke)", "setting": "[1]; 0.693/T1/2", "value": 0.0201, "unit": "min⁻¹"},
      {"measurement": "volume of distribution (Vd)", "setting": "[1]; Dose/C0", "value": 27.5, "unit": "L kg−1 bw"},
      {"measurement": "Clearance", "setting": "[1]; Ke×Vd", "value": 0.552, "unit": "L min−1 kg−1 bw"},
      {"measurement": "amount or stability of the clarin-1 N48K mutant", "setting": "human clarin-1 N48K", "value": "did not affect the amount or stability"}
    ]}
  ]
}
